According to patent US20230263886A1, “VACCINES, VACCINE PRIMING, AND ANTIGEN DOSE SPARING” (priority 2020, published 2023):

Key:
[1] = type: in vivo, C57BL/6J mice
Description: Body weights were measured serially.

[2] = system: H3N2; conditions: including a recombinant influenza antigen
Description: Sera were analyzed at days 0, 14, and 28 by ELISA for H3N2-specific IgG titers and HI (hemagglutination inhibition) titers, H1N1-specific IgG titers and HI titers, and B/Phuket-specific IgG titers and HI titers. All mice were previously naïve to human influenza.

[3] = system: H3N2; experiment: H3N2-specific IgG by ELISA, dose-sparing study in mice (Example 4); conditions: FIG. 26
Description: Sera were analyzed at days 0, 21 and 42 by ELISA for H3N2-specific IgG.

CC1O[C@@H](OC2C(O)[C@@H](NC(=O)CCCCCCCCCCC(=O)O)C(CO)O[C@H]2OC(=O)[C@]23CCC(C)(C)CC2C2=CCC4C5(C)CC[C@H](O)C(C)(C=O)C5CCC4(C)C2(C)CC3O)C(O)C(O)[C@H]1O[C@@H]1OC[C@@H](O)C(O)C1O (stereo partly shown) [TQL-1055]
body weight after immunization ([1]; mice receiving TQL-1055): gained weight steadily | dose sparing for vaccine antigens [2]: at least 32 × | antigen dose-sparing effects, murine antibody response to FLUBLOK [3]: superior antigen dose-sparing effects

QS-21 [reference compound]
maximum weight loss ([1]; mice receiving 20 mcg of QS-21): > 10%
